Experimental findings from patent publication US20060247250A1 (TargeGen, Inc., priority 2005, published 2006) are described below.

The target of the assay is T1, human c-Src (Homo sapiens, UniProt P12931).
T1 construct: purchased Panvera/Invitrogen
T1 sequence (P12931 whole entry): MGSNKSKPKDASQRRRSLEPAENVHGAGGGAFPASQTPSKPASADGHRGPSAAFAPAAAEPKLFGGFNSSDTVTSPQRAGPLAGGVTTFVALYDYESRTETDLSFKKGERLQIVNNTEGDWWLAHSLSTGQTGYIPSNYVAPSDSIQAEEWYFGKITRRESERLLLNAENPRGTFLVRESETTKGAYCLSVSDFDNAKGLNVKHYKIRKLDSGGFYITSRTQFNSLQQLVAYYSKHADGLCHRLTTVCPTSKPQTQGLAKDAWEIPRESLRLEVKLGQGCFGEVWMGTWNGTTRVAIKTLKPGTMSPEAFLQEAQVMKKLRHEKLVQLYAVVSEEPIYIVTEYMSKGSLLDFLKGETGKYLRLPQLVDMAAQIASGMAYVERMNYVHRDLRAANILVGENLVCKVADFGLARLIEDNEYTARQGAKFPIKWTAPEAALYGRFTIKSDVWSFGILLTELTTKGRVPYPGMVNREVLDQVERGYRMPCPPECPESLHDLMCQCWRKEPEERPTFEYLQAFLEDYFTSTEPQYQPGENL
As to the kind of experiment: Src kinase inhibition, luciferase-based residual ATP (KinaseGlo). The format is biochemical. The settings on record: recombinant human c-Src, ATP 3 μM, PTK2 substrate, 90 minutes at room temperature. As to the method:
The ability of compounds of the present invention to inhibit the activity of three groups of kinases was tested. Kinases tested included the src family (primarily src and yes), the angiogenic growth factors receptors (FGFR1, PDGFRb and VEGFR2) and the ephrin, EphB4. All kinase reactions were conducted in 96-well plates with a final reaction volume of 50 ul.
Recombinant human c-Src or Yes (28 ng/well, Panvera/Invitrogen, Madison Wis.), ATP (3 μM), a tyrosine kinase substrate (PTK2, 250 μM, Promega Corp., Madison Wis.), and test agents (at concentrations ranging from about 1 nM/l to about 100 μM/1), in the presence of Src kinase reaction buffer (Upstate USA, Lake Placid N.Y.). After reacting for about 90 minutes at room temperature, residual ATP was determined using a luciferase-based assay (KinaseGlo, Promega Corp.) as a measure of kinase activity. Data from four wells were then averaged and used to determine IC50 values for the test compounds (Prism software package, GraphPad Software, San Diego Calif.).
(Kinase-Glo measures the ATP left after a reaction by luminescence.)
For the compound `O=C(Nc1cnc(Nc2ccc(S(=O)(=O)CCCN3CCCC3)cc2)nc1)c1cc(O)ccc1Cl` [XXXII, 2-Chloro-5-hydroxy-N-{2-[4-(3-pyrrolidin-1-yl-propane-1-sulfonyl)-phenylamino]-pyrimidin-5-yl}-benzamide], the half-inhibitory concentration (IC50) – broadly, the concentration at which inhibition is half-maximal – turned out to be 9.8 nM.

As for `O=C(Nc1cnc(Nc2ccc(C(=O)N3CCNCC3)cc2)nc1)c1cc(O)ccc1Cl` [LI, 2-Chloro-5-hydroxy-N-{2-[4-(piperazine-1-carbonyl)-phenylamino]-Pyrimidin-5-yl}-benzamide], the 50% inhibitory concentration (IC50) came to 12 nM.

In the case of `O=C(Nc1cnc(Nc2ccc(C(=O)N3CCN(CCO)CC3)nc2)nc1)c1c(Cl)cccc1Cl` [II, 2,6-Dichloro-N-(2-{6-[4-(2-hydroxy-ethyl)-piperazine-1-carbonyl]-pyridin-3-ylamino}-pyrimidin-5-yl)-benzamide], the 50% inhibitory concentration (IC50) stood at 400 nM.

Take `Cc1cccc(C)c1C(=O)Nc1cnc(Nc2ccc(C(=O)NCCN3CCCC3)cc2)nc1` [XXIX, 2,6-Dimethyl-N-{2-[4-(2-pyrrolidin-1-yl-ethylcarbamoyl)-phenylamino]-pyrimidin-5-yl}-benzamide]: the IC50 was determined as 117 nM.

On to `O=C(NCCN1CCCC1)c1ccc(Nc2ncc(NC(=O)c3cc(O)ccc3Cl)cn2)cc1` [XXV, 2-Chloro-5-hydroxy-N-{2-[4-(2-pyrrolidin-1-yl-ethylcarbamoyl)-phenylamino]-pyrimidin-5-yl}-benzamide], for which the IC50 came out at 8.5 nM.

Take `O=C(Nc1cnc(Nc2cccc(OCCN3CCCC3)c2)nc1)c1c(Cl)cccc1Cl` [XLIV, N-(2-(3-(2-(Pyrrolidin-1-yl)ethoxy)phenylamino)pyrimidin-5-yl)-2,6-dichlorobenzamide]: the half-inhibitory concentration (IC50) amounted to 25 nM.

For `O=C(NCCN1CCCC1)c1csc(Nc2ncc(NC(=O)c3cc(O)ccc3Cl)cn2)n1` [XVIII, 2-[5-(2-Chloro-5-hydroxy-benzoylamino)-pyrimidin-2-ylamino]-thiazole-4-carboxylic acid (2-pyrrolidin-1-yl-ethyl)-amide], the IC50 was found to be 20 nM.

Regarding `CN1CCN(S(=O)(=O)c2ccc(Nc3ncc(NC(=O)c4c(Cl)cccc4Cl)cn3)cc2)CC1` [V, 2,6-Dichloro-N-{2-[4-(4-methyl-piperazine-1-sulfonyl)-phenylamino]-pyrimidin-5-yl}-benzamide], the concentration for half-maximal inhibition (IC50) came to 667 nM.

`Cc1cccc(C)c1C(=O)Nc1cnc(Nc2cccc(S(=O)(=O)NCCN(C)C)c2)nc1` [I, N-{2-[3-(2-Dimethylamino-ethylsulfamoyl)-phenylamino]-Pyrimidin-5-yl}-2,6-dimethyl-benzamide]: the IC50 turned out to be 288 nM.

On to `COc1ccc(Cl)c(C(=O)Nc2cnc(Nc3ccc(S(=O)(=O)CCCN4CCCC4)cc3)nc2)c1` [Compound 53, 2-Chloro-5-methoxy-N-{2-[4-(3-pyrrolidin-1-yl-propane-1-sulfonyl)-phenylamino]-pyrimidin-5-yl}-benzamide], for which the IC50 stood at 8000 nM.

`Oc1ccc(Cl)c(CNc2cnc(Nc3ccc(OCCN4CCCC4)cc3)nc2)c1` [XLI, 3-((2-(4-(2-(Pyrrolidin-1-yl)ethoxy)phenylamino)pyrimidin-5-ylamino)methyl)-4-chlorophenol]: the half-inhibitory concentration (IC50) was 55 nM.

In the case of `O=C(Nc1cnc(Nc2ccc(S(=O)(=O)CCCN3CCCC3)cc2)nc1)c1c(Cl)cccc1Cl` [XXXIV, 2,6-Dichloro-N-{2-[4-(3-pyrrolidin-1-yl-pronane-1-sulfonyl)-phenylamino]-pyrimidin-5-yl}-benzamide], the IC50 amounted to 119 nM.

For the compound `O=C(Nc1cnc(Nc2cccnc2)nc1)c1cc(O)ccc1Cl` [XI, Chloro-5-hydroxy-N-[2-(pyridin-3-ylamino)-pyrimidin-5-yl]-benzamide], the IC50 came to 43 nM.

As for `O=C(NCCN1CCCC1)c1ccc(Nc2ncc(NC(=O)c3cc(O)ccc3Cl)cn2)cn1` [IX, 5-[5-(2-Chloro-5-hydroxy-benzoylamino)-pyrimidin-2-ylamino]-Pyridine-2-carboxylic acid (2-pyrrolidin-1-yl-ethyl)-amide], the IC50 came to 13 nM.

As to `O=C(Nc1cnc(Nc2ccc(OCCN3CCCC3)cc2)nc1)c1cc(O)ccc1Cl` [XXXVIII, N-(2-(4-(2-(Pyrrolidin-1-yl)ethoxy)phenylamino)pyrimidin-5-yl)-2-chloro-5-hydroxybenzamide], the IC50 turned out to be 27 nM.

As for `O=C(NCCN1CCCC1)c1ccc(Nc2ncc(NC(=O)c3c(Cl)cccc3Cl)cn2)cn1` [VIII, 5-[5-(2,6-Dichloro-benzoylamino)-pyrimidin-2-ylamino]-pyridine-2-carboxylic acid (2-pyrrolidin-1-yl-ethyl)-amide], the IC50 was 129 nM.

Take `Cc1cccc(C)c1C(=O)Nc1cnc(Nc2ccc(S(=O)(=O)NCCN3CCCC3)cc2)nc1` [VI, 2,6-Dimethyl-N-{2-[4-(2-pyrrolidin-1-yl-ethylsulfamoyl)-phenylamino]-pyrimidin-5-yl}-benzamide]: the IC50 amounted to 90 nM.

Regarding `O=C(Nc1cnc(Nc2cccc(OCCN3CCCC3)c2)nc1)c1cc(O)ccc1Cl` [XLII, N-(2-(3-(2-(Pyrrolidin-1-yl)ethoxy)phenylamino)pyrimidin-5-yl)-2-chloro-5-hydroxybenzamide], the IC50 is 21 nM.

Regarding `CC(C)N(CCO)C(=O)c1ccc(Nc2ncc(NC(=O)c3cc(O)ccc3Cl)cn2)cc1` [XXII, 2-Chloro-5-hydroxy-N-(2-{4-[(2-hydroxy-ethyl)-isopropyl-carbamoyl]-phenylamino}-pyrimidin-5-yl)-benzamide], the half-inhibitory concentration (IC50) amounted to 43 nM.

In the case of `O=C(Nc1cnc(Nc2ccc(S(=O)(=O)CCCN3CCCC3)cc2)nc1)c1cc(Cl)ccc1Cl` [XXXVII, 2,5-Dichloro-N-{2-[4-(3-pyrrolidin-1-yl-propane-1-sulfonyl)-phenylamino]-pyrimidin-5-yl}-benzamide], the IC50 worked out at 1750 nM.

Turning to `Cc1cccc(C)c1C(=O)Nc1cnc(Nc2ccc(C(=O)N3CCN(C)CC3)cc2)nc1` [XV, 2,6-Dimethyl-N-{2-[4-(4-methyl-piperazine-1-carbonyl)-phenylamino]-pyrimidin-5-yl}-benzamide], the IC50 was found to be 223 nM.

In the case of `N#Cc1cccc(C(=O)Nc2cnc(Nc3ccc(S(=O)(=O)CCCN4CCCC4)cc3)nc2)c1` [XXXI, 3-Cyano-N-{2-[4-(3-pyrrolidin-1-yl-propane-1-sulfonyl)-phenylamino]-pyrimidin-5-yl}-benzamide], the IC50 was more than 10000 nM.

For the compound `Cc1c(O)cccc1C(=O)Nc1cnc(Nc2ccc(C(=O)N3CCN(C)CC3)cc2)nc1` [XVII, 2-Methyl-3-hydroxy-N-{2-[4-(4-methyl-piperazine-1-carbonyl)-phenylamino]-pyrimidin-5-yl}-benzamide], the IC50 was determined as 550 nM.

With `CN1CCN(C(=O)c2ccc(Nc3ncc(NC(=O)c4cc(O)ccc4Cl)cn3)cc2)CC1` [XVI, 2-Chloro-5-hydroxy-N-{2-[4-(4-methyl-piperazine-1-carbonyl)-phenylamino]-pyrimidin-5-yl}-benzamide], the IC50 was found to be 21 nM.

`CN(CCN1CCCC1)S(=O)(=O)c1ccc(Nc2ncc(NC(=O)c3c(Cl)cccc3Cl)cn2)cc1` [IV, 2,6-Dichloro-N-(2-[4-[methyl-(2-pyrrolidin-1-yl-ethyl)-sulfamoyl]-phenylamino]-pyrimidin-5-yl)-benzamide]: the IC50 was determined as 2100 nM.

Take `Clc1cccc(Cl)c1CNc1cnc(Nc2cccc(OCCN3CCCC3)c2)nc1` [LII, N′-(2,6-Dichloro-benzyl)-N-[3-(2-pyrrolidin-1-yl-ethoxy)-phenyl]-pyrimidine-2,5-diamine]: the concentration for half-maximal inhibition (IC50) is 60 nM.

Turning to `O=C(Nc1cnc(Nc2ccc(S(=O)(=O)NCCN3CCCC3)cc2)nc1)c1c(Cl)cccc1Cl` [III, 2,6-Dichloro-N-{2-[4-(2-pyrrolidin-1-yl-ethylsulfamoyl)-phenylamino]-pyrimidin-5-yl}-benzamide], the IC50 is 73 nM.

For the compound `O=C(Nc1cnc(Nc2ccc(S(=O)(=O)N3CCNCC3)cc2)nc1)c1cc(O)ccc1Cl` [XLVII, 2-Chloro-5-hydroxy-N-{2-[4-(piperazine-1-sulfonyl)-phenylamino]-Pyrimidin-5-yl}-benzamide], the IC50 stood at 38 nM.

As to `Cc1nc(Nc2ncc(NC(=O)c3c(Cl)cccc3Cl)cn2)cc(N2CCN(CCO)CC2)n1` [LIII, 2,6-Dichloro-N-(2-{6-[4-(2-hydroxy-ethyl)-piperazin-1-yl]-2-methyl-pyrimidin-4-ylamino}-pyrimidin-5-yl)-benzamide], the IC50 is 3000 nM.

For `Cc1cccc(C)c1C(=O)Nc1cnc(Nc2cccc(OCCN3CCCC3)c2)nc1` [XLIII, N-(2-(3-(2-(Pyrrolidin-1-yl)ethoxy)phenylamino)pyrimidin-5-yl)-2,6-dimethylbenzamide], the IC50 is 99 nM.

For the compound `O=C(Nc1cnc(Nc2ccc(C(=O)N3CCN(CCO)CC3)nc2)nc1)c1cc(O)ccc1Cl` [XLVIII, 2-Chloro-5-hydroxy-N-(2-{6-[4-(2-hydroxy-ethyl)-piperazine-1-carbonyl]-pyridin-3-ylamino}-pyrimidin-5-yl)-benzamide], the half-inhibitory concentration (IC50) came to 53 nM.

For the compound `O=C(NCCN1CCCC1)c1ccc(Nc2ncc(NC(=O)c3ccc(O)cc3Cl)cn2)cc1`, the IC50 was 85 nM.

Turning to `Cc1cccc(C)c1C(=O)Nc1cnc(Nc2ccc(C(=O)N3CCNCC3)cc2)nc1` [L, 2,6-Dimethyl-N-{2-[4-(piperazine-1-carbonyl)-phenylamino]-pyrimidin-5-yl}-benzamide], the IC50 came to 183 nM.

For the compound `Cc1c(O)cccc1C(=O)Nc1cnc(Nc2ccc(C(=O)NCCN3CCCC3)cc2)nc1` [XXVII, 3-Hydroxy-2-methyl-N-{2-[4-(2-pyrrolidin-1-yl-ethylcarbamoyl)-phenylamino]-pyrimidin-5-yl}-benzamide], the IC50 was 216 nM.
